# Laboratory results: PubChem BioAssay AID1259411 (Chemical Carcinogenesis Research Information System (CCRIS), 2018)
# Calls of active or inactive are those of the source. No rule for the calls is given here.
# System: rodent carcinogenicity bioassays, tumor incidence
# Experiment: CCRIS carcinogenicity studies
# Settings: Species: RAT, Route: ORAL, Dose: 0, Dose: 0
# Summary of the method: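 NCI-built, expert-reviewed records of carcinogenicity and related test outcomes (mutagenicity, tumor promotion/inhibition) compiled from published and report sources, historical span 1985-2011, not updated.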
compound,measurement,setting,value
CO[C@@H]1[C@@H](O[C@@H]2O[C@H](C)[C@@H](O[C@H]3C[C@@](C)(O)[C@@H](OC(=O)CC(C)C)[C@H](C)O3)[C@H](N(C)C)[C@H]2O)[C@@H](CC=O)C[C@@H](C)[C@@H](O)/C=C/C=C/C[C@@H](C)OC(=O)C[C@H]1OC(C)=O,carcinogen call,"Strain/Sex: F344/FEMALE, 1.25, 2.5% IN DIET FOR 104 WK (STUDY DURATION: 106 WK), 1.25, 2.5% IN DIET FOR 104 WK (STUDY DURATION: 106 WK)",inactive; negative
same,carcinogen call,"Strain/Sex: F344/MALE, 1.25, 2.5% IN DIET FOR 104 WK (STUDY DURATION: 106 WK)",inactive; negative
